# Laboratory results as given in patent US4356306A, “Water-soluble derivatives of 6,6'-methylene-bis-(2,2,4-trimethyl-1,2-dihydroquinoline)” (Material Vegyipari Szovetkezet, priority 1979, dated 1982).
# What was measured:
# [1] = known radioprotective compounds; cited from earlier work
# [2] = tested on: cancer of the bladder; conditions: large amount of Vitamin-C; cited from earlier work
# [3] = inhibitor activity on the polymerization of acrylic acid at 60° C.; type: biochemical; conditions: control 16 hours
# Procedure: The efficiency of the compounds of the invention was investigated in vitro by measuring the inhibitor activity of the compounds on the polymerization of acrylic acid at 60° C., and comparing this activity with that of 3.5-di-tert.butyl-4-hydroxy-toluene (BHT) and L-ascorbic acid. The radical binding activity of the compounds was studied.
# The times required to polymerization are given in the next Table.
# [4] = tested on: CFLP mice; test: protection against LD90 radiodose after i.p. administration; type: in vivo; conditions: 1000 mg./kg. i.p., preferably 2 hours before LD90 radiodose
# Procedure: The unexpected activity of the new compounds has been observed during a total body irradiation. As test animals CFLP mice of an average weight of 20 to 22 g. were used, each group consisted of 8 male and 8 female animals. The control group was irradiated with 7 Gy (total body irradiation) and the test groups were treated per os for 10 days with the new water-soluble antioxidant of the invention at a daily dose of 0.5 g./kg. The treatment was followed by 7 Gy total body irradiation. There was no significant difference between the various water-soluble antioxidants and as a result within 30 days two animals of the control group were alive and an average of 12 animals survived in the treated group. A significant result was obtained with X^2 probe, p<0.001 and the Dose Modification Factor (DMF), which is the number of dead animals in the control group related to the number of dead animals in the treated group, amounted to 3.5 at LD80. A dose of 1000 mg./kg. bodyweight of MTDQ disulfonic acid Na was administered i.p. preferably 2 hours before irradiation with an LD90 radiodose and a 100% protective activity was obtained. […] It is known that the radioprotective compounds protect the healthy tissue cells better than the malignant tumor cells.
# [5] = tested on: mice; test: protection against hepatotoxic dimethylsulfoxide; type: in vivo; conditions: for death after dimethylsulfoxide / protective activity against dimethylsulfoxide: 100 mg. disulfonic acid or 60 mg. disulfonamide in water and dimethylsulfoxide, i.p. or s.c.
# Procedure: The surrounding carcinogens play an important role in the formation of malignant tumors. These carcinogens contain free radicals or they become carcinogenic in the living organism. […] As the radical reactions may be controlled by the antioxidants, they may be employed as therapeutic and as prophylactic agents as well. […] A hepatotoxic substance had to be administered which was simultaneously carcinogenic. Dimethylsulfoxide was suitable. 0.3 ml. of dimethylsulfoxide/mice was administered i.p. or s.c. in an aqueous solution and as a result 7 animals died within 10 days out of 10 test animals.
# [6] = plasma concentration; type: in vivo
# Excerpt: (§1) The concentration of the found MTDQ was the same as if it had not been the compound of the invention that had been administered, but rather MTDQ. […] The radioprotective activity of the water-soluble antioxidant is presumably due to the fact that the radiation energy is predominantly concentrated on the antioxidant and further that in addition to its membrane stabilizing activity the radicals and peroxides formed in the course of the irradiation, are inactivated by the antioxidant, in the well oxygenated cells.
# [7] = tested on: malignant tumor tissues; conditions: cited from earlier work
# [8] = detection of MTDQ in the liver; type: in vivo; conditions: after administration of the compound of the invention
# Excerpt: as §1
structure (smiles),measurement,setting,value
"NCCCNCCSP(=O)(O)O [WR 2721, S-2-(3-aminopropyl)-aminoethyl-phosphorothioic acid]",duration of effect after administration,[1],extremely limited
same,effective doses as radioprotective compound,[1],effective only at subtoxic doses
O=C1O[C@H]([C@@H](O)CO)C(O)=C1O [L-ascorbic acid],cancer of the bladder by beta-naphthyl-amine,[2],does not cause cancer of the bladder
same,times required to polymerization,[3]; 0.02%,18 h
"Cc1cc(C(C)(C)C)c(O)c(C(C)(C)C)c1 [BHT, 3.5-di-tert.butyl-4-hydroxy-toluene]",times required to polymerization,[3]; 0.02%,120 h
N[C@@H](CS)C(=O)O [cysteine],duration of effect after administration,[1],extremely limited
same,effective doses as radioprotective compound,[1],effective only at subtoxic doses
"CC1(C)C=C(CS(=O)(=O)O)c2cc(Cc3ccc4c(c3)C(CS(=O)(=O)O)=CC(C)(C)N4)ccc2N1 [MTDQ disulfonic acid Na, 6,6'-methylene-bis(2,2-dimethyl-4-methanesulfonic acid Na-1,2-dihydroquinoline)]",protective activity,[4],100%
"Br.Br.N=C(N)SCCN [AET, S-2-aminoethyl-isothiuronium-dihydrobromide]",duration of effect after administration,[1],extremely limited
same,effective doses as radioprotective compound,[1],effective only at subtoxic doses
C[S+](C)[O-] [Dimethylsulfoxide],animals died within 10 days,"[5]; 0.3 ml./mice i.p. or s.c., out of 10 test animals",7 animals
CC1(C)C=C(CS(=O)(=O)O)c2cc(Cc3ccc4c(c3)C(CS(=O)(=O)O)=CC(C)(C)N4)ccc2N1 [MTDQ-disulfonic acid],death after dimethylsulfoxide,[5],no death was observed
same,protective activity against dimethylsulfoxide,[5],100%
same,times required to polymerization,[3]; concentration not given,400 h
"NCCS [cysteamine, beta-mercapto-ethyl-amine]",duration of effect after administration,[1],extremely limited
same,effective doses as radioprotective compound,[1],effective only at subtoxic doses
"CC1=CC(C)(C)Nc2ccc(Cc3ccc4c(c3)C(C)=CC(C)(C)N4)cc21 [MTDQ, 6,6'-methylene-bis(2,2,4-trimethyl-1,2-dihydroquinoline)]",concentration of found MTDQ compared with administration of MTDQ itself,[6]; after administration of the compound of the invention,the same
same,MTDQ in the plasma as metabolite (desulfonation),[6]; after administration of the new compounds,found in the plasma
same,radiosensibility of malignant tumor tissues,[7]; in vivo,increase the radiosensibility of malignant tumor tissues
same,reduction of radiodose for the same effect,[7]; radiosensitive tumors,at least 50%
same,MTDQ in the liver,[8],could be detected in the liver
CC1(C)C=C(CS(N)(=O)=O)c2cc(Cc3ccc4c(c3)C(CS(N)(=O)=O)=CC(C)(C)N4)ccc2N1 [disulfonamide],death after dimethylsulfoxide,[5],no death was observed
same,protective activity against dimethylsulfoxide,[5],100%
